Measured values as given in patent US8415469B2, “Compounds and methods for kinase modulation, and indications therefor” (Plexxikon Inc., priority 2005, dated 2013).

Tests used:
Assay type in all cases: biochemical
Jnk1 = target: T1, Jnk1 (Homo sapiens, UniProt P45983); assay: AlphaScreen kinase assay, Jnk1; details: read-out: IC50, activity toward kinase Jnk1
T1 construct: purchased Upstate Biotechnology

B-Raf V600E = target: T2, B-Raf V600E (Homo sapiens, UniProt P15056, V600E); assay: AlphaScreen kinase assay, B-Raf V600E; details: read-out: IC50, activity toward kinase B-Raf V600E
T2 construct: P4254. pFastBacBD-CDC37 BRAF D437-K722-X, V600E; His6 with pFastBac HT leader (TEV site) (N); made in house; host or cells: Sf9 (baculovirus; chaperone CDC37 co-expressed)
T2 sequence (P15056 with tags, fused parts or gaps V600E): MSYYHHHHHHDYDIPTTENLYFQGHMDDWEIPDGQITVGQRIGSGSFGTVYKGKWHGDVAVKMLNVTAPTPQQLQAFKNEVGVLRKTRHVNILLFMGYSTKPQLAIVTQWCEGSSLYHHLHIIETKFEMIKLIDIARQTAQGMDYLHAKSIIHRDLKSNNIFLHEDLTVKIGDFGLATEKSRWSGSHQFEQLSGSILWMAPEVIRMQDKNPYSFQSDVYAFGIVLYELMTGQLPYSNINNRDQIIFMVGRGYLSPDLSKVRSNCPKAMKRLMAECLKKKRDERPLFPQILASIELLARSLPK

Jnk3 = target: T3, Jnk3 (Homo sapiens, UniProt P53779); assay: AlphaScreen kinase assay, Jnk3; details: read-out: IC50, activity toward kinase Jnk3
T3 construct: purchased Upstate Biotechnology
T3 sequence (P53779 whole entry): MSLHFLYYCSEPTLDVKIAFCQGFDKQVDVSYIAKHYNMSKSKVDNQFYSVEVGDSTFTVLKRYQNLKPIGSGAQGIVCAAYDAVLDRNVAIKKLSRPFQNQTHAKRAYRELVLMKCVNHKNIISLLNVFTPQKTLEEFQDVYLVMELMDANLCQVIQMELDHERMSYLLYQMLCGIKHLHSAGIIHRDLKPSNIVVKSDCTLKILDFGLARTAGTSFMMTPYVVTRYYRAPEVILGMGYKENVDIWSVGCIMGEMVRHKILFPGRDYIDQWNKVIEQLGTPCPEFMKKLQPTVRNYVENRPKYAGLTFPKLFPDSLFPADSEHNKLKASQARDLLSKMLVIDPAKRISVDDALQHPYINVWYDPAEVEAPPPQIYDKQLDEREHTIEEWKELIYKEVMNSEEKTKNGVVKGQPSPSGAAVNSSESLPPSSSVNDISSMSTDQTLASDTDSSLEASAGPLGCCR

Fms = target: T4, Fms (Homo sapiens, UniProt P07333); assay: AlphaScreen kinase assay, Fms; details: read-out: IC50, activity toward kinase Fms
T4 construct: purchased Upstate Biotechnology
T4 sequence (P07333 20-972): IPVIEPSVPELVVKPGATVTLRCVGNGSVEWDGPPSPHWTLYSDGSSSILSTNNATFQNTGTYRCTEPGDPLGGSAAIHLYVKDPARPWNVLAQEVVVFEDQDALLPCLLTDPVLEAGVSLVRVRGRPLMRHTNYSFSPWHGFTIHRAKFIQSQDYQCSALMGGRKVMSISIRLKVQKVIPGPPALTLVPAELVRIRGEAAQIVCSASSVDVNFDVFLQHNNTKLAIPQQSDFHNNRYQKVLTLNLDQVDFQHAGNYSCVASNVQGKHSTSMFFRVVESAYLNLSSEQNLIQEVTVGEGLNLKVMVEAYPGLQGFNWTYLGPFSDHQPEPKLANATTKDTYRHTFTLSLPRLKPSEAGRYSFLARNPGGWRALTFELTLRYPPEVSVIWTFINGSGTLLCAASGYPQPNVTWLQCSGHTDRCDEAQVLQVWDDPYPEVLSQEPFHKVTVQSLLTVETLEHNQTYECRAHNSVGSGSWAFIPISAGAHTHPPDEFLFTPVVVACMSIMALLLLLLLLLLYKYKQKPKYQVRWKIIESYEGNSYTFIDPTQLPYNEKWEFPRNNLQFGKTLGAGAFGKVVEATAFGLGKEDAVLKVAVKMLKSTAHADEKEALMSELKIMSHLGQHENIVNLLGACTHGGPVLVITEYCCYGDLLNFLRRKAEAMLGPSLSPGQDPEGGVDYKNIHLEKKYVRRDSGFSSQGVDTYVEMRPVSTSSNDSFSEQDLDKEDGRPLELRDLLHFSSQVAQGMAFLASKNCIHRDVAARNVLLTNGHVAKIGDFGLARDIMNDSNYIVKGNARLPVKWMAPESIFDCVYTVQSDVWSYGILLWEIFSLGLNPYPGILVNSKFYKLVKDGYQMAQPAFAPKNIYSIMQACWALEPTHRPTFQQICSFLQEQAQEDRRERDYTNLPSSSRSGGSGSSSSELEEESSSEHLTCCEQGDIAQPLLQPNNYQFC

B-Raf = target: T5, B-Raf (Homo sapiens, UniProt P15056); assay: AlphaScreen kinase assay, B-Raf; details: read-out: IC50, activity toward kinase B-Raf
T5 construct: purchased Upstate Biotechnology
T5 sequence (P15056 whole entry): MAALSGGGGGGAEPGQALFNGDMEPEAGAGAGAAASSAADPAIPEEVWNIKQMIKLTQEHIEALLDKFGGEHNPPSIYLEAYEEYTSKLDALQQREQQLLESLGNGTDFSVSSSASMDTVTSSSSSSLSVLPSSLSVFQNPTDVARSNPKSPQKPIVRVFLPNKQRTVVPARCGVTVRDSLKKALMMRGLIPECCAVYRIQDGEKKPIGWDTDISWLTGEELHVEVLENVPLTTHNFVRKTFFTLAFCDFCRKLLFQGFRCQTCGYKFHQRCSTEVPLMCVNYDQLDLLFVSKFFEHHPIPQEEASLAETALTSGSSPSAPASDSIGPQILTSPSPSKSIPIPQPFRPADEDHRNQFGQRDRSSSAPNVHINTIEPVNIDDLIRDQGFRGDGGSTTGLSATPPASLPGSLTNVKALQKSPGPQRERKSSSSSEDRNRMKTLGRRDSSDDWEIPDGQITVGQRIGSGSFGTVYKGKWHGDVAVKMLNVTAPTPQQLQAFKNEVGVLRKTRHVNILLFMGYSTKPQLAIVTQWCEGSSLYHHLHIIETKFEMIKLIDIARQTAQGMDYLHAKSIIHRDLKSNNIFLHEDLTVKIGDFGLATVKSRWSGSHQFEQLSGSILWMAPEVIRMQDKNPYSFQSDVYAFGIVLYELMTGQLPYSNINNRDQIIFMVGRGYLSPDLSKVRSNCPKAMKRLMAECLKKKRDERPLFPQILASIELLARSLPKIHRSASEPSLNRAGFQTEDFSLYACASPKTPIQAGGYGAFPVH

Src = target: T6, Src (Homo sapiens, UniProt P12931); assay: AlphaScreen kinase assay, Src; details: read-out: IC50, activity toward kinase Src
T6 construct: P1144. pET-N6 BI-PTP SRC V86-L536-X; made in house
T6 sequence (P12931 with tags, fused parts or gaps): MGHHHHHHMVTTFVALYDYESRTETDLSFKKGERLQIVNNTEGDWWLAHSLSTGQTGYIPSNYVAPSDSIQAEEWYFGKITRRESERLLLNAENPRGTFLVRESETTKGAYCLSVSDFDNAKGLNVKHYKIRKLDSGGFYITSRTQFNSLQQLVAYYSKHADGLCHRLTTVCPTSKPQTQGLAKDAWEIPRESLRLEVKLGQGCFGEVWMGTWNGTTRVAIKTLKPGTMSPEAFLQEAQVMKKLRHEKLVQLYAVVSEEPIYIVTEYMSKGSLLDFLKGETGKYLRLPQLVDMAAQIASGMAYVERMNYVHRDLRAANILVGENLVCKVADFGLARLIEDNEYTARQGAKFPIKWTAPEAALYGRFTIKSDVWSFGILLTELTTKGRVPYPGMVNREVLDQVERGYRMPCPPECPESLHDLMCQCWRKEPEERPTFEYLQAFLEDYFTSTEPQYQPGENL

Flt1 = target: T7, Flt1 (Homo sapiens, UniProt P17948); assay: AlphaScreen kinase assay, Flt1; details: read-out: IC50, activity toward kinase Flt1
T7 construct: P1826.pETN6 BI-PTP FLT1 M799-D1165-X WT; His6 (N); made in house; host or cells: E. coli (PTP1B co-expressed)
T7 sequence (P17948 with tags, fused parts or gaps): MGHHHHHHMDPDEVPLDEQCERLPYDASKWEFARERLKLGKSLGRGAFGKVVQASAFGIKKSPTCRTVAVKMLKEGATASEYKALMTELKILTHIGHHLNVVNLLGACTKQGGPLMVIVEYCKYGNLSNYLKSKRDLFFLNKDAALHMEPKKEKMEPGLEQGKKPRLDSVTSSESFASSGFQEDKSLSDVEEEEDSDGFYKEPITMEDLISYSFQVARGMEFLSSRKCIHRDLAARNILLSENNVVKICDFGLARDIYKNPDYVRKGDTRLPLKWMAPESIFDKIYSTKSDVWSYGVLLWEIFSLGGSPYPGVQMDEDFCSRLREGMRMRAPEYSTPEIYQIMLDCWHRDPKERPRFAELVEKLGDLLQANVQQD

FGFR1 = target: T8, FGFR1 (Homo sapiens, UniProt P11362, C488A/C584S); assay: AlphaScreen kinase assay, FGFR1; details: read-out: IC50, activity toward kinase FGFR
T8 construct: P1351.pET N6 BI-PTP FGFR A458-E765-X C488A, C584S; made in house; host or cells: E. coli (PTP1B co-expressed)
T8 sequence (P11362 458-765 C488A/C584S): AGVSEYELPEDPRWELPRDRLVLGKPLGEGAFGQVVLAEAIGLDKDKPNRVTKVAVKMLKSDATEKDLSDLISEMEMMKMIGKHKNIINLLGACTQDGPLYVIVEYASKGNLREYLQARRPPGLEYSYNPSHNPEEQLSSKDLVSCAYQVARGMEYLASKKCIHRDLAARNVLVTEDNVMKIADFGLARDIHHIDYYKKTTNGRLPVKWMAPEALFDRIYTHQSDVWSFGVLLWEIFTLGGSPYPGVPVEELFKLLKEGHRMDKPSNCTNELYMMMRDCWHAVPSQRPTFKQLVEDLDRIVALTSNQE

Ret = target: T9, Ret (Homo sapiens, UniProt P07949); assay: AlphaScreen kinase assay, Ret; details: read-out: IC50, activity toward kinase Ret
T9 construct: P1378.pET-SF BI-PTP RET H661-R1012 HIS; made in house
T9 sequence (P07949 with tags, fused parts or gaps): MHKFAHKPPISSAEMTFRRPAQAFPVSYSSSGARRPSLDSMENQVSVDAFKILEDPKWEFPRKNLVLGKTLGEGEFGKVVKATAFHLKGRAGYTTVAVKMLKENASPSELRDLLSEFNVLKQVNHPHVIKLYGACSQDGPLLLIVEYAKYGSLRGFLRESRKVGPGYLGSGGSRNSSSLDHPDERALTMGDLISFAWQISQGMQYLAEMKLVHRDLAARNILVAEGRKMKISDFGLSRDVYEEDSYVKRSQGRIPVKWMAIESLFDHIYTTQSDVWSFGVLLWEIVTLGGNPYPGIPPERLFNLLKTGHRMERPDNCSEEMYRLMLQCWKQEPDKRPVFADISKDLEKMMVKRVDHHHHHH

Kit = target: T10, Kit (Homo sapiens, UniProt P10721); assay: AlphaScreen kinase assay, Kit; details: read-out: IC50, activity toward kinase Kit
T10 construct: P1332.N6 BI PTP KIT M552-K948-X COD; His6 (N); made in house; host or cells: E. coli (PTP1B co-expressed)
T10 sequence (P10721 with tags, fused parts or gaps): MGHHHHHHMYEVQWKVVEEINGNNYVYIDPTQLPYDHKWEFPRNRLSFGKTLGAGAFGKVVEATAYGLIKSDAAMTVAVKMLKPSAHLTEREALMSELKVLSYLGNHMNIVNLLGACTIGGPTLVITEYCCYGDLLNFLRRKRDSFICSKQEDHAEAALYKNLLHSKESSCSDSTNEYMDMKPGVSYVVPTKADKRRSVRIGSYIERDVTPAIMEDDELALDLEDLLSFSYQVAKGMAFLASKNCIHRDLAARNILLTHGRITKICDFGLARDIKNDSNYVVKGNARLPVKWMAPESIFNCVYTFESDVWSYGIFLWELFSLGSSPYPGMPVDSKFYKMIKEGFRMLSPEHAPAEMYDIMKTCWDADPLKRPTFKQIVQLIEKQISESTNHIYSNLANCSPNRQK

c-Raf-1 = target: T11, c-Raf-1 (Homo sapiens, UniProt P04049); assay: AlphaScreen kinase assay, c-Raf-1; details: read-out: IC50, activity toward kinase c-Raf-1
T11 construct: purchased Upstate Biotechnology
T11 sequence (P04049 whole entry): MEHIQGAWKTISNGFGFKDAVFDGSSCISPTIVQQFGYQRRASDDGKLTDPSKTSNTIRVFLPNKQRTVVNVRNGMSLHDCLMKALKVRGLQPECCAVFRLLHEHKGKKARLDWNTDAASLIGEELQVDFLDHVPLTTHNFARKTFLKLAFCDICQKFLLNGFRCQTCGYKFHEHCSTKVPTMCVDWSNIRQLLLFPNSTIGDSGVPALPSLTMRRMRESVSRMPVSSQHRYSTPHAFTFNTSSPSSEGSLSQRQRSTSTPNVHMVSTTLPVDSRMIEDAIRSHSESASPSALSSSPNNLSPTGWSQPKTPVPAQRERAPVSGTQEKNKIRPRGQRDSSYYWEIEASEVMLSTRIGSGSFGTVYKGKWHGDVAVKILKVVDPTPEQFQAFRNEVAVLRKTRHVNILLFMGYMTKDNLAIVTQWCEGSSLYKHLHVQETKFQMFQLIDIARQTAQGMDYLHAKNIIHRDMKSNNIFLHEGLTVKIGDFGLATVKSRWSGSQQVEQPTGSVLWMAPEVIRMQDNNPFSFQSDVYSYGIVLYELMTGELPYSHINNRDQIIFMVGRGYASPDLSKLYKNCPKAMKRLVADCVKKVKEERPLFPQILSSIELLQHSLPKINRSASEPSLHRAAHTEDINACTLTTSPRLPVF

T1 sequence (P45983 whole entry): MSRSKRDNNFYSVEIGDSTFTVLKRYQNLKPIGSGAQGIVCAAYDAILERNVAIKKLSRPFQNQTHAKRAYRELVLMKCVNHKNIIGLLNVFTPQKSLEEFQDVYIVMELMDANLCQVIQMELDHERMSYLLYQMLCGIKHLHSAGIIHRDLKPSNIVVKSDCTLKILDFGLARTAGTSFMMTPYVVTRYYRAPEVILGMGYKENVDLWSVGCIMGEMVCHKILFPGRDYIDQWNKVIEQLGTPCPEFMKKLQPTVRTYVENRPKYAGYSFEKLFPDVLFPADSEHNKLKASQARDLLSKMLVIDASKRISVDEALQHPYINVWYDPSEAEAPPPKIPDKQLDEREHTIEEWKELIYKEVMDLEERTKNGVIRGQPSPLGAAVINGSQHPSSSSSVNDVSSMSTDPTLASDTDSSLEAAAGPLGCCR

IC50 (Jnk1) [µM] | IC50 (B-Raf V600E) [µM] | IC50 (Jnk3) [µM] | IC50 (Fms) [µM] | IC50 (B-Raf) [µM] | IC50 (Src) [µM] | IC50 (Flt1) [µM] | IC50 (FGFR1) [µM] | IC50 (Ret) [µM] | IC50 (Kit) [µM] | IC50 (c-Raf-1) [µM] | SMILES
≤ 10 | ≤ 10 | ≤ 10 | ≤ 10 | ≤ 10 |  |  |  |  |  |  | CCCCN(CCCC)C(=O)n1ccc2c(C(=O)c3c[nH]c4ncc(-c5cccnc5)cc34)cccc21 [Compound P-1636, 4-(5-pyridin-3-yl-1H-pyrrolo[2,3-b]pyridine-3-carbonyl)-indole-1-carboxylic acid dibutylamide]
≤ 10 | ≤ 10 | ≤ 10 | ≤ 10 | ≤ 10 |  |  |  |  |  |  | O=C(Nc1cccc(C(=O)c2c[nH]c3ncc(Cl)cc23)c1)Nc1ccon1 [Compound P-1775, 1-[3-(5-Chloro-1H-pyrrolo[2,3-b]pyridine-3-carbonyl)-phenyl]-3-isoxazol-3-yl-urea]
 |  |  | ≤ 10 |  | ≤ 10 |  |  |  |  |  | c1ccc(Oc2cccc(Nc3c[nH]c4ncccc34)c2)cc1 [Compound P-1496, (3-Phenoxy-phenyl)-(1H-pyrrolo[2,3-b]pyridin-3-yl)-amine]
≤ 10 | ≤ 10 | ≤ 10 | ≤ 10 | ≤ 10 |  | ≤ 10 | ≤ 10 |  |  |  | CCCS(=O)(=O)Nc1cccc(C(=O)c2c[nH]c3ncc(-c4ccccc4)cc23)c1C [Compound P-1610]
 | ≤ 10 |  |  |  | ≤ 10 |  | ≤ 10 | ≤ 10 | ≤ 10 |  | COc1ccc(C(=O)c2c[nH]c3ncc(Br)cc23)c(Cl)c1 [Compound P-0647]
≤ 10 |  | ≤ 10 | ≤ 10 |  |  | ≤ 10 | ≤ 10 |  | ≤ 10 |  | O=C(O)COc1ccc(F)c(Cc2c[nH]c3ncc(-c4cccnc4)cc23)c1F [Compound P-1468, [2,4-difluoro-3-(5-pyridin-3-yl-1H-pyrrolo[2,3-b]pyridin-3-ylmethyl)-phenoxy]-acetic acid]
 | ≤ 10 |  | ≤ 10 |  | ≤ 10 | ≤ 10 | ≤ 10 |  |  |  | Clc1ccc(CNc2ccc(Cc3c[nH]c4nccc(Cl)c34)cn2)cc1 [Compound P-0515]
 |  |  |  |  | ≤ 10 |  |  |  | ≤ 10 |  | Cc1cccc(C)c1C(=O)c1c[nH]c2ncccc12 [Compound P-1484]
≤ 10 | ≤ 10 | ≤ 10 |  | ≤ 10 |  | ≤ 10 | ≤ 10 |  |  |  | NC(=O)c1cccc(-c2cnc3[nH]cc(C(=O)c4cccc(N)c4)c3c2)c1 [Compound P-1592]
 | ≤ 10 |  | ≤ 10 |  | ≤ 10 |  |  |  | ≤ 10 |  | COc1cccc(N(C)c2c[nH]c3ncccc23)c1 [Compound P-1506, (3-Methoxy-phenyl)-methyl-(1H-pyrrolo[2,3-b]pyridin-3-yl)-amine]
≤ 10 | ≤ 10 | ≤ 10 |  | ≤ 10 |  | ≤ 10 | ≤ 10 |  |  |  | O=C(O)/C=C/c1cccc(-c2cnc3[nH]cc(C(=O)c4ccc(Cl)cc4Cl)c3c2)c1 [Compound P-1585]
 | ≤ 10 |  | ≤ 10 |  | ≤ 10 | ≤ 10 | ≤ 10 |  |  |  | COc1ccnc2[nH]cc(Cc3ccc(NCc4ccc(Cl)cc4)nc3)c12 [Compound P-0373]
≤ 10 | ≤ 10 | ≤ 10 | ≤ 10 | ≤ 10 |  | ≤ 10 | ≤ 10 |  | ≤ 10 |  | CCCCNC(=O)Nc1ccc(F)c(C(=O)c2c[nH]c3ncc(-c4cccnc4)cc23)c1 [Compound P-1534, 1-Butyl-3-[4-fluoro-3-(5-pyridin-3-yl-1H-pyrrolo[2,3-b]pyridine-3-carbonyl)-phenyl]-urea]
≤ 10 | ≤ 10 | ≤ 10 |  | ≤ 10 |  | ≤ 10 | ≤ 10 |  |  |  | Nc1ccc(F)c(C(=O)c2c[nH]c3ncc(-c4ccccc4)cc23)c1 [Compound P-1577]
 | ≤ 10 |  |  |  | ≤ 10 |  | ≤ 10 |  |  |  | CCCS(=O)(=O)Nc1ccc(F)c(Cc2c[nH]c3ncc(NCCN4CCN(C)CC4)cc23)c1F [Compound P-1345]
 | ≤ 10 |  | ≤ 10 |  | ≤ 10 | ≤ 10 | ≤ 10 |  | ≤ 10 |  | O=C(O)/C=C/c1cccc(-c2cnc3[nH]cc(C(=O)c4cccc(C(F)(F)F)c4)c3c2)c1 [Compound P-1416, (E)-3-{3-[3-(3-Trifluoromethyl-benzoyl)-1H-pyrrolo[2,3-b]pyridin-5-yl]-phenyl}-acrylic acid]
 | ≤ 10 |  | ≤ 10 |  | ≤ 10 |  | ≤ 10 |  | ≤ 10 |  | O=[N+]([O-])c1cccc(C(O)c2c[nH]c3ncc(-c4cccnc4)cc23)c1 (stereo not shown) [Compound P-1399, (3-nitro-phenyl)-(5-pyridin-3-yl-1H-pyrrolo[2,3-b]pyridin-3-yl)-methanol]
≤ 10 | ≤ 10 | ≤ 10 | ≤ 10 | ≤ 10 |  | ≤ 10 | ≤ 10 |  | ≤ 10 | ≤ 10 | CCCS(=O)(=O)Nc1ccc(F)c(C(=O)c2c[nH]c3ncc(-c4ccc(C(N)=O)cc4)cc23)c1F [Compound P-1546, 4-{3-[2,6-Difluoro-3-(propane-1-sulfonylamino)-benzoyl]-1H-pyrrolo[2,3-b]pyridin-5-yl}-benzamide]
 | ≤ 10 |  | ≤ 10 |  | ≤ 10 | ≤ 10 | ≤ 10 |  | ≤ 10 |  | CS(=O)(=O)Nc1cccc(-c2cnc3[nH]cc(Cc4ccc5c(c4)OCCO5)c3c2)c1 [Compound P-1530, N-{3-[3-(2,3-Dihydro-benzo[1,4]dioxin-6-ylmethyl)-1H-pyrrolo[2,3-b]pyridin-5-yl]-phenyl}-methanesulfonamide]
≤ 10 | ≤ 10 | ≤ 10 | ≤ 10 | ≤ 10 |  |  |  |  | ≤ 10 |  | COc1cccc(NC(=O)Nc2cccc(C(=O)c3c[nH]c4ncccc34)c2)c1 [Compound P-1707, 1-(3-Methoxy-phenyl)-3-[3-(1H-pyrrolo[2,3-b]pyridine-3-carbonyl)-phenyl]-urea]
 |  |  | ≤ 10 |  | ≤ 10 |  | ≤ 10 |  | ≤ 10 |  | O=C(c1c(Cl)cccc1Cl)c1c[nH]c2ncccc12 [Compound P-1476]
≤ 10 |  | ≤ 10 | ≤ 10 |  |  | ≤ 10 |  |  |  |  | O=C(c1c[nH]c2ncc(-c3ccc(Cl)cc3)cc12)c1cccc2c1ccn2C(=O)NCc1ccccc1 [Compound P-1618, 4-[5-(4-Chloro-phenyl)-1H-pyrrolo[2,3-b]pyridine-3-carbonyl]-indole-1-carboxylic acid benzylamide]
≤ 10 | ≤ 10 | ≤ 10 | ≤ 10 | ≤ 10 |  |  |  |  | ≤ 10 |  | O=C(Nc1cccc(C(=O)c2c[nH]c3ncccc23)c1)Nc1ccc(F)c(F)c1 [Compound P-1706, 1-(3,4-Difluoro-phenyl)-3-[3-(1H-pyrrolo[2,3-b]pyridine-3-carbonyl)-phenyl]-urea]
